# Assay results published in patent US20070128217A1 (priority 2003, published 2007).
# Legend:
# [1] = tested on: rabbit serum obtained by immunizing a rabbit with the SARS-CoV strain Frankfurt 1; format: binding; parameters: Binding of a rabbit serum to linear peptides / Binding of a rabbit serum to looped peptides / Rabbit serum linear peptides / Rabbit serum looped peptides / Binding of a rabbit serum to linear peptides of protein N of SARS-CoV Urbani (Rabbit serum linear peptides) / Binding of a rabbit serum to looped/cyclic peptides of protein N of SARS-CoV Urbani (Rabbit serum looped peptides): unit not given here
# [2] = tested on: antibodies in sera from SARS patients (sera 1a, 1b, 2, 6, 37, 62, London, SARS-yellow, SARS-green); format: binding, human; parameters: Binding of serum 6 to linear peptides of protein X1 of SARS-CoV Urbani / Binding of serum 37 to linear peptides of protein X1 of SARS-CoV Urbani / Binding of serum 6 to looped/cyclic peptide (PEPSCAN-ELISA) / Binding of serum 37 to looped/cyclic peptide (PEPSCAN-ELISA) / Binding of serum 37 to looped/cyclic peptides of protein X1 of SARS-CoV Urbani / Binding of serum 6 to linear peptides of protein X2 / Binding of serum 37 to linear peptides of protein X2 / Binding of serum 37 to looped/cyclic peptides of protein X2 of SARS-CoV Urbani / Binding of serum 6 to linear peptides of protein M of SARS-CoV Urbani / Binding of serum 37 to linear peptides of protein M of SARS-CoV Urbani / Binding of serum 6 to looped/cyclic peptides of protein M of SARS-CoV Urbani / Binding of serum 37 to looped/cyclic peptides of protein M of SARS-CoV Urbani / Binding of serum 6 to linear peptides of protein X3 of SARS-CoV Urbani / Binding of serum 37 to linear peptides of protein X3 of SARS-CoV Urbani / Binding of serum 37 to looped/cyclic peptides of protein X3 of SARS-CoV Urbani / Binding of serum 6 to linear peptides of protein X4 of SARS-CoV Urbani / Binding of serum 37 to linear peptides of protein X4 of SARS-CoV Urbani / Binding of serum 37 to looped/cyclic peptides of protein X4 of SARS-CoV Urbani / Binding of serum 6 to linear peptides of protein X5 of SARS-CoV Urbani / Binding of serum 37 to linear peptides of protein X5 of SARS-CoV Urbani / Binding of serum 37 to looped/cyclic peptides of protein X5 of SARS-CoV Urbani / Binding of serum 6 to linear peptides of protein N of SARS-CoV Urbani / Binding of serum 37 to linear peptides of protein N of SARS-CoV Urbani / Binding of serum 6 to linear peptide (PEPSCAN-ELISA) / Binding of serum 1a to looped/cyclic peptides of protein N of SARS-CoV Urbani / Binding of serum 1b to looped/cyclic peptides of protein N of SARS-CoV Urbani / Binding of serum 2 to looped/cyclic peptides of protein N of SARS-CoV Urbani / Binding of serum 6 to looped/cyclic peptides of protein N of SARS-CoV Urbani / Binding of serum 37 to looped/cyclic peptides of protein N of SARS-CoV Urbani / Binding of serum 62 to looped/cyclic peptides of protein N of SARS-CoV Urbani / Binding of serum London to looped/cyclic peptides of protein N of SARS-CoV Urbani / Binding of serum SARS-green to looped/cyclic peptides of protein N of SARS-CoV Urbani: unit not given here
# [3] = tested on: control sera (pooled serum of ten healthy LUMC hospital workers; commercial negative donor pooled serum from the Dutch bloodbank); format: binding, human; parameters: Binding of Control serum LUMC to linear peptides / Binding of Control serum Blood-bank to linear peptides / Binding of Control serum LUMC to looped peptides / Binding of Control Serum Blood-Bank to Looped peptides / Binding of Control serum LUMC to linear peptides of the protein M of SARS-CoV Urbani / Binding of Control serum Blood-bank to linear peptides of the protein M of SARS-CoV Urbani / Binding of Control serum LUMC to looped peptides of the protein M of SARS-CoV Urbani / Binding of Control Serum Blood-Bank to Looped peptides of the protein M of SARS-CoV Urbani: unit not given here
sequence,measurement,setting,value
LVRYNTRGNTYSTAW,Rabbit serum linear peptides,[1],0.7
same,Rabbit serum looped peptides,[1],0.3
same,Binding of serum 1a to linear peptides of protein X5 of SARS-CoV Urbani,[2],0.7
same,Binding of serum 1a to looped/cyclic peptides of protein X5 of SARS-CoV Urbani,[2],0.4
same,Binding of serum 1b to linear peptides of protein X5 of SARS-CoV Urbani,[2],0.4
same,Binding of serum 1b to looped/cyclic peptides of protein X5 of SARS-CoV Urbani,[2],0.2
same,Binding of serum 2 to linear peptides of protein X5 of SARS-CoV Urbani,[2],0.5
same,Binding of serum 2 to looped/cyclic peptides of protein X5 of SARS-CoV Urbani,[2],0.4
same,Binding of serum 6 to linear peptides of protein X5 of SARS-CoV Urbani,[2],0.4
same,Binding of serum 6 to looped/cyclic peptides of protein X5 of SARS-CoV Urbani,[2],0.3
same,Binding of serum 37 to linear peptides of protein X5 of SARS-CoV Urbani,[2],0.6
same,Binding of serum 37 to looped/cyclic peptides of protein X5 of SARS-CoV Urbani,[2],0.5
same,Binding of serum 62 to linear peptides of protein X5 of SARS-CoV Urbani,[2],0.7
same,Binding of serum 62 to looped/cyclic peptides of protein X5 of SARS-CoV Urbani,[2],0.6
same,Binding of serum London to linear peptides of protein X5 of SARS-CoV Urbani,[2],0.6
same,Binding of serum London to looped/cyclic peptides of protein X5 of SARS-CoV Urbani,[2],0.2
same,Binding of serum SARS-green to linear peptides of protein X5 of SARS-CoV Urbani,[2],0.4
same,Binding of serum SARS-green to looped/cyclic peptides of protein X5 of SARS-CoV Urbani,[2],0.3
same,Binding of serum SARS-yellow to linear peptides of protein X5 of SARS-CoV Urbani,[2],0.3
same,Binding of serum SARS-yellow to looped/cyclic peptides of protein X5 of SARS-CoV Urbani,[2],0.5
same,Binding of Control Serum Blood-Bank to Looped peptides,[3],0.3
same,Binding of Control serum Blood-bank to linear peptides,[3],0.8
same,Binding of Control serum LUMC to linear peptides,[3],0.5
same,Binding of Control serum LUMC to looped peptides,[3],0.5
LVVILRIGTQVLKTM,Binding of a rabbit serum to linear peptides,[1],0.4
same,Binding of a rabbit serum to looped peptides,[1],0.6
same,Binding of serum 1a to linear peptides of protein X2,[2],0.7
same,Binding of serum 1a to looped/cyclic peptides of protein X2 of SARS-CoV Urbani,[2],0.6
same,Binding of serum 1b to linear peptides of protein X2,[2],0.5
same,Binding of serum 1b to looped/cyclic peptides of protein X2 of SARS-CoV Urbani,[2],0.6
same,Binding of serum 2 to linear peptides of protein X2,[2],0.5
same,Binding of serum 2 to looped/cyclic peptides of protein X2 of SARS-CoV Urbani,[2],0.4
same,Binding of serum 6 to linear peptides of protein X2,[2],0.4
same,Binding of serum 6 to looped/cyclic peptides of protein X2 of SARS-CoV Urbani,[2],0.4
same,Binding of serum 37 to linear peptides of protein X2,[2],0.6
same,Binding of serum 37 to looped/cyclic peptides of protein X2 of SARS-CoV Urbani,[2],0.4
same,Binding of serum 62 to linear peptides of protein X2,[2],0.7
same,Binding of serum 62 to looped/cyclic peptides of protein X2 of SARS-CoV Urbani,[2],0.7
same,Binding of serum London to linear peptides of protein X2,[2],0.5
same,Binding of serum London to looped/cyclic peptides of protein X2 of SARS-CoV Urbani,[2],0.3
same,Binding of serum SARS-green to linear peptides of protein X2,[2],0.5
same,Binding of serum SARS-green to looped/cyclic peptides of protein X2 of SARS-CoV Urbani,[2],0.4
same,Binding of serum SARS-yellow to linear peptides of protein X2,[2],0.7
same,Binding of serum SARS-yellow to looped/cyclic peptides of protein X2 of SARS-CoV Urbani,[2],0.5
same,Binding of Control Serum Blood-Bank to Looped peptides,[3],0.8
same,Binding of Control serum Blood-bank to linear peptides,[3],0.7
same,Binding of Control serum LUMC to linear peptides,[3],0.7
same,Binding of Control serum LUMC to looped peptides,[3],0.6
LYALIYFLQCINACR,Binding of a rabbit serum to linear peptides,[1],0.2
same,Binding of a rabbit serum to looped peptides,[1],0.6
same,Binding of serum 1a to linear peptides of protein X1 of SARS-CoV Urbani,[2],0.7
same,Binding of serum 1a to looped/cyclic peptide (PEPSCAN-ELISA),[2],0.4
same,Binding of serum 1b to linear peptides of protein X1 of SARS-CoV Urbani,[2],0.5
same,Binding of serum 1b to looped/cyclic peptide (PEPSCAN-ELISA),[2],0.3
same,Binding of serum 2 to linear peptides of protein X1 of SARS-CoV Urbani,[2],0.5
same,Binding of serum 2 to looped/cyclic peptide (PEPSCAN-ELISA),[2],0.6
same,Binding of serum 6 to linear peptides of protein X1 of SARS-CoV Urbani,[2],0.5
same,Binding of serum 6 to looped/cyclic peptide (PEPSCAN-ELISA),[2],0.7
same,Binding of serum 37 to linear peptides of protein X1 of SARS-CoV Urbani,[2],0.6
same,Binding of serum 37 to looped/cyclic peptide (PEPSCAN-ELISA),[2],0.6
same,Binding of serum 62 to linear peptides of protein X1 of SARS-CoV Urbani,[2],0.6
same,Binding of serum 62 to looped/cyclic peptide (PEPSCAN-ELISA),[2],0.5
same,Binding of serum London to linear peptides of protein X1 of SARS-CoV Urbani,[2],0.3
same,Binding of serum London to looped/cyclic peptide (PEPSCAN-ELISA),[2],1.2
same,Binding of serum SARS-green to linear peptides of protein X1 of SARS-CoV Urbani,[2],0.1
same,Binding of serum SARS-green to looped/cyclic peptide (PEPSCAN-ELISA),[2],0.2
same,Binding of serum SARS-yellow to linear peptides of protein X1 of SARS-CoV Urbani,[2],0.4
same,Binding of serum SARS-yellow to looped/cyclic peptide (PEPSCAN-ELISA),[2],0.2
same,Binding of Control Serum Blood-Bank to Looped peptides,[3],0.4
same,Binding of Control serum Blood-bank to linear peptides,[3],0.7
same,Binding of Control serum LUMC to linear peptides,[3],0.6
same,Binding of Control serum LUMC to looped peptides,[3],0.6
LYDANYFVCWHTHNY,Binding of a rabbit serum to linear peptides,[1],0.1
same,Binding of a rabbit serum to looped peptides,[1],0.5
same,Binding of serum 1a to linear peptides of protein X1 of SARS-CoV Urbani,[2],0.9
same,Binding of serum 1a to looped/cyclic peptide (PEPSCAN-ELISA),[2],0.6
same,Binding of serum 1b to linear peptides of protein X1 of SARS-CoV Urbani,[2],0.8
same,Binding of serum 1b to looped/cyclic peptide (PEPSCAN-ELISA),[2],0.5
same,Binding of serum 2 to linear peptides of protein X1 of SARS-CoV Urbani,[2],0.5
same,Binding of serum 2 to looped/cyclic peptide (PEPSCAN-ELISA),[2],0.4
same,Binding of serum 6 to linear peptides of protein X1 of SARS-CoV Urbani,[2],0.7
same,Binding of serum 6 to looped/cyclic peptide (PEPSCAN-ELISA),[2],0.4
same,Binding of serum 37 to linear peptides of protein X1 of SARS-CoV Urbani,[2],0.8
same,Binding of serum 37 to looped/cyclic peptide (PEPSCAN-ELISA),[2],0.6
same,Binding of serum 62 to linear peptides of protein X1 of SARS-CoV Urbani,[2],0.8
same,Binding of serum 62 to looped/cyclic peptide (PEPSCAN-ELISA),[2],0.6
same,Binding of serum London to linear peptides of protein X1 of SARS-CoV Urbani,[2],0.4
same,Binding of serum London to looped/cyclic peptide (PEPSCAN-ELISA),[2],0.2
same,Binding of serum SARS-green to linear peptides of protein X1 of SARS-CoV Urbani,[2],0.4
same,Binding of serum SARS-green to looped/cyclic peptide (PEPSCAN-ELISA),[2],0.3
same,Binding of serum SARS-yellow to linear peptides of protein X1 of SARS-CoV Urbani,[2],0.5
same,Binding of serum SARS-yellow to looped/cyclic peptide (PEPSCAN-ELISA),[2],0.3
same,Binding of Control Serum Blood-Bank to Looped peptides,[3],0.7
same,Binding of Control serum Blood-bank to linear peptides,[3],0.8
same,Binding of Control serum LUMC to linear peptides,[3],0.7
same,Binding of Control serum LUMC to looped peptides,[3],0.5
LYIIKLVFLWLLWPV,Rabbit serum linear peptides,[1],0.1
same,Rabbit serum looped peptides,[1],0.3
same,Binding of serum 1a to linear peptides of protein M of SARS-CoV Urbani,[2],0.8
same,Binding of serum 1a to looped/cyclic peptides of protein M of SARS-CoV Urbani,[2],0.6
same,Binding of serum 1b to linear peptides of protein M of SARS-CoV Urbani,[2],0.6
same,Binding of serum 1b to looped/cyclic peptides of protein M of SARS-CoV Urbani,[2],0.5
same,Binding of serum 2 to linear peptides of protein M of SARS-CoV Urbani,[2],0.6
same,Binding of serum 2 to looped/cyclic peptides of protein M of SARS-CoV Urbani,[2],0.5
same,Binding of serum 6 to linear peptides of protein M of SARS-CoV Urbani,[2],0.4
same,Binding of serum 6 to looped/cyclic peptides of protein M of SARS-CoV Urbani,[2],0.7
same,Binding of serum 37 to linear peptides of protein M of SARS-CoV Urbani,[2],0.4
same,Binding of serum 37 to looped/cyclic peptides of protein M of SARS-CoV Urbani,[2],0.6
same,Binding of serum 62 to linear peptides of protein M of SARS-CoV Urbani,[2],0.4
same,Binding of serum 62 to looped/cyclic peptides of protein M of SARS-CoV Urbani,[2],0.6
same,Binding of serum London to linear peptides of protein M of SARS-CoV Urbani,[2],0.3
same,Binding of serum London to looped/cyclic peptides of protein M of SARS-CoV Urbani,[2],0.2
same,Binding of serum SARS-green to linear peptides of protein M of SARS-CoV Urbani,[2],0.5
same,Binding of serum SARS-green to looped/cyclic peptides of protein M of SARS-CoV Urbani,[2],0.3
same,Binding of serum SARS-yellow to linear peptides of protein M of SARS-CoV Urbani,[2],0.2
same,Binding of serum SARS-yellow to looped/cyclic peptides of protein M of SARS-CoV Urbani,[2],0.3
same,Binding of Control Serum Blood-Bank to Looped peptides of the protein M of SARS-CoV Urbani,[3],0.7
same,Binding of Control serum Blood-bank to linear peptides of the protein M of SARS-CoV Urbani,[3],0.7
same,Binding of Control serum LUMC to linear peptides of the protein M of SARS-CoV Urbani,[3],0.7
same,Binding of Control serum LUMC to looped peptides of the protein M of SARS-CoV Urbani,[3],0.6
